The record followed here is patent publication US20090298825A1, “Bicycloheteroaryl Compounds as P2x7 Modulators and Uses Thereof” (priority 2006, published 2009).

This assay concerns the target T1, P2X7 receptor (Homo sapiens, UniProt Q99572).
T1 construct: endogenous in cells; host or cells: THP-1 cells differentiated with LPS and IFN-γ
T1 sequence (Q99572 1-595): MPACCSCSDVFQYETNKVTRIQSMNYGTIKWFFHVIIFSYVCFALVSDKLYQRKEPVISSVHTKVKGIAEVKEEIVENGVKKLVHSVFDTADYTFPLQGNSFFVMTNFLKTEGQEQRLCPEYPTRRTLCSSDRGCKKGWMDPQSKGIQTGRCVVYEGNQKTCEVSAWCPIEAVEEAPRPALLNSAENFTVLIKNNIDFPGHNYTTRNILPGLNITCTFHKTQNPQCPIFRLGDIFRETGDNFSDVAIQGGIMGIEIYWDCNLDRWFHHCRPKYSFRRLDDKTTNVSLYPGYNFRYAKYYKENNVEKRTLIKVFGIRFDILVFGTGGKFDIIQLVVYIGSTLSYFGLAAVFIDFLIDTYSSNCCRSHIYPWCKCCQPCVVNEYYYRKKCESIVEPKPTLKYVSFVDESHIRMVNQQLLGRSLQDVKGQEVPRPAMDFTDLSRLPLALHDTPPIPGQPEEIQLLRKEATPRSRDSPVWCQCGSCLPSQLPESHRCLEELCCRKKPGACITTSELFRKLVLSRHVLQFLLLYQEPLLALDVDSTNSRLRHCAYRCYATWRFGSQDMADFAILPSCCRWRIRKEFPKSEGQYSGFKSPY
Kind of assay: IL-1β release assay in differentiated THP-1 cells stimulated with BzATP (Example 9). Format: cell-based. To be noted: for inhibition at 0.1 µM: 0.1 μM concentration; for inhibition at 0.1 µM / inhibition at 0.3 µM: read-out: IL-1β % Inhib. @ 0.3 or 0.1 μM; for inhibition at 0.3 µM: 0.3 μM concentration; for IC50: four parameter logistic fit, read-out: IL-1β IC50. The procedure: The cells are then pretreated for 30 minutes with the compound of interest at the appropriate concentration in RPMI media containing 100 IU/mL penicillin, 100 ug/mL streptomycin. […] 30 uL of cell supernatant is then collected and IL-1β levels determined via ELISA (R&D systems Cat. # HSLB50) according to manufacturer's recommendations using the Tecan Safire plate reader. Background adjusted IL-1β levels of drug treated and non-treated cells are used to calculate the percent inhibition.
The compounds set forth in Table 1 were tested for activity in a cellular model as described herein. […] Measurements were made and IC50 values, presented in Table 2, below, were determined by fitting the data to a four parameter logistic equation using GraphPad Prism software (GraphPad Software, Inc). The equation may be expressed by the following formula:
Y=Bottom+(Top-Bottom)/(1+10̂((Log EC50−X)*HillSlope))
Where X is the logarithm of concentration, Y is the response and Y starts at Bottom and goes to Top with a sigmoid shape.

Consider `CCOC(=O)N1CCC(n2ccc3c(NC(=O)c4ccc(Cl)c(C)c4)cccc3c2=O)CC1` [ID 760], for which the inhibition at 0.1 µM was in the range of 0 to 25%.

Regarding `O=C(Cc1ccc(Cl)c(Cl)c1)Nc1cccc2c(=O)n(C3CCC3)ccc12` [ID 898], the inhibition at 0.3 µM is over 76% and the IC50 – broadly, the concentration needed to halve the response being measured – was determined as 23.6 nM.

On to `COc1ccc(OC)c(CC(=O)Nc2cccc3c(=O)n(-c4cc(C)on4)ccc23)c1` [ID 728], for which the inhibition at 0.1 µM was 0 to 25%.

Regarding `O=C(CC1(O)CCCCCC1)Nc1cccc2c(=O)n(C3CCNCC3)ccc12` [ID 813], the inhibition at 0.3 µM was 0 to 25% and the IC50 was found to be 760 nM.

Regarding `O=C(CC1(O)CCCCCC1)Nc1cccc2c(=O)n([C@H]3CCNC3)ccc12` [ID 849], the inhibition at 0.3 µM was 0 to 25% and the IC50 turned out to be 403 nM.

For the compound `O=C(CC12CC3CC(CC(C3)C1)C2)Nc1cccc2c(=O)n(-c3ccc(Oc4c(Cl)cccc4Cl)nc3)ccc12` [ID 713], the inhibition at 0.3 µM is over 76% and the IC50 was 10.7 nM.

For `CCOC(=O)N1CCC(n2ccc3c(NC(=O)CCc4ccccc4Cl)cccc3c2=O)CC1` [ID 758], the inhibition at 0.1 µM fell in the range of 0 to 25%.

As to `Cc1cccc(C(=O)Nc2cccc3c(=O)n(-c4cc(C)on4)ccc23)c1` [ID 723], the inhibition at 0.1 µM is 0 to 25%.

In the case of `O=C(CC12CC3CC(CC(C3)C1)C2)Nc1cccc2c(=O)n(C3CC3)ccc12` [ID 889], the inhibition at 0.3 µM is over 76% and the IC50 is 0.777 nM.

With `CCOC(=O)N1CCC(n2ccc3c(NC(=O)Cc4cccc(C)c4)cccc3c2=O)CC1` [ID 784], the inhibition at 0.1 µM was 0 to 25%.

Regarding `Cc1cc(-n2ccc3c(NC(=O)c4cccc(C)c4C)cccc3c2=O)no1` [ID 721], the inhibition at 0.1 µM is 0 to 25%.

Consider `CCOC(=O)N1CCC(n2ccc3c(NC(=O)CCc4ccc(C)cc4C)cccc3c2=O)CC1` [ID 810], for which the inhibition at 0.1 µM was 0 to 25%.

As to `CCOC(=O)N1CCC(n2ccc3c(NC(=O)C45CC6C[C@H](C4)C[C@@](O)(C6)C5)cccc3c2=O)CC1` [ID 796], the inhibition at 0.1 µM was in the range of 0 to 25%.

As for `O=C(Cc1ccc(C(F)(F)F)cc1C(F)(F)F)Nc1cccc2c(=O)n(C3CC3)ccc12` [ID 880], the inhibition at 0.3 µM is over 76% and the IC50 turned out to be 67.8 nM.

Regarding `CCOC(=O)N1CCC(n2ccc3c(NC(=O)c4ccc(-c5ccccc5)cc4)cccc3c2=O)CC1` [ID 772], the inhibition at 0.1 µM is 0 to 25%.

Turning to `CCOC(=O)N1CCC(n2ccc3c(NC(=O)C(C)c4ccccc4)cccc3c2=O)CC1` (stereo not shown) [ID 774], the inhibition at 0.1 µM was 0 to 25%.

Turning to `Cc1cc(-n2ccc3c(NC(=O)C(C)c4ccc(Cl)c(C(F)(F)F)c4)cccc3c2=O)n[nH]1` (stereo not shown) [ID 838], the inhibition at 0.3 µM was over 76% and the IC50 amounted to 14.9 nM.

Take `CCOC(=O)N1CCC(n2ccc3c(NC(=O)CCc4cccc(C)c4)cccc3c2=O)CC1` [ID 807]: the inhibition at 0.1 µM lay in the range of 0 to 25%.

`Cc1cc(-n2ccc3c(NC(=O)c4ccc(CC(C)C)cc4)cccc3c2=O)no1` [ID 747]: the inhibition at 0.1 µM lay in the range of 0 to 25%.

With `O=C(Cc1cccc(C(F)(F)F)c1F)Nc1cccc2c(=O)n(-c3cccnc3F)ccc12` [ID 874], the inhibition at 0.3 µM is over 76% and the IC50 was 27.9 nM.

For the compound `CC(C(=O)Nc1cccc2c(=O)n(-c3cc[nH]n3)ccc12)C1CCCCCC1` (stereo not shown) [ID 843], the inhibition at 0.3 µM was over 76% and the IC50 is 12.2 nM.

Consider `Cc1ncccc1-n1ccc2c(NC(=O)C(C)c3cccc(C(F)(F)F)c3F)cccc2c1=O` (stereo not shown) [ID 862], for which the inhibition at 0.3 µM is over 76% and the IC50 is 17.2 nM.

As for `CCOC(=O)N1CCC(n2ccc3c(NC(=O)c4cccc5c4OCCO5)cccc3c2=O)CC1` [ID 798], the inhibition at 0.1 µM lay in the range of 0 to 25%.

Consider `Cc1cc(-n2ccc3c(NC(=O)c4ccc(F)c(C)c4)cccc3c2=O)no1` [ID 740], for which the inhibition at 0.1 µM was in the range of 0 to 25%.

As for `Cc1ncccc1-n1ccc2c(NC(=O)Cc3ccc(F)c(F)c3F)cccc2c1=O` [ID 867], the inhibition at 0.3 µM is over 76% and the IC50 was 40.5 nM.

Turning to `O=C(Cc1ccc(F)c(C(F)(F)F)c1)Nc1cccc2c(=O)n(-c3cccnc3F)ccc12` [ID 872], the inhibition at 0.3 µM is over 76% and the IC50 was determined as 30.4 nM.

Turning to `Cc1ccncc1-n1ccc2c(NC(=O)Cc3ccc(C(F)(F)F)cc3)cccc2c1=O` [ID 853], the inhibition at 0.3 µM lay in the range of 51 to 75% and the IC50 amounted to 245 nM.

Regarding `CCOC(=O)N1CCC(n2ccc3c(NC(=O)CCc4cccc(Cl)c4)cccc3c2=O)CC1` [ID 811], the inhibition at 0.1 µM is 0 to 25%.

As to `O=C(Cc1ccc(F)c(Cl)c1)Nc1cccc2c(=O)n(C3CCC3)ccc12` [ID 893], the inhibition at 0.3 µM was over 76% and the IC50 came to 48.3 nM.

On to `CCOC(=O)N1CCC(n2ccc3c(NC(=O)Cc4ccc(OC)cc4)cccc3c2=O)CC1` [ID 785], for which the inhibition at 0.1 µM was 0 to 25%.

In the case of `Cc1ccc(C)c(CC(=O)Nc2cccc3c(=O)n(-c4cc(C)on4)ccc23)c1` [ID 716], the inhibition at 0.1 µM lay in the range of 0 to 25%.

For the compound `O=C(Cc1ccc(Cl)c(C(F)(F)F)c1)Nc1cccc2c(=O)n(-c3cc[nH]n3)ccc12` [ID 842], the inhibition at 0.3 µM was over 76% and the IC50 was found to be 1.24 nM.

For `O=C(Cc1ccc(Cl)c(C(F)(F)F)c1)Nc1cccc2c(=O)n(C3CC3)ccc12` [ID 890], the inhibition at 0.3 µM is over 76% and the IC50 is 4.33 nM.

For the compound `Cc1ncccc1-n1ccc2c(NC(=O)Cc3ccc(F)c(C(F)(F)F)c3)cccc2c1=O` [ID 860], the inhibition at 0.3 µM was over 76% and the IC50 is 13.9 nM.

For `CC(C(=O)Nc1cccc2c(=O)n(-c3cccnc3F)ccc12)c1cccc(C(F)(F)F)c1F` (stereo not shown) [ID 875], the inhibition at 0.3 µM is over 76% and the IC50 worked out at 8.32 nM.

With `CCOC(=O)N1CCC(n2ccc3c(NC(=O)c4cccc(C)c4Cl)cccc3c2=O)CC1` [ID 808], the inhibition at 0.1 µM was 0 to 25%.

Consider `Cc1ncccc1-n1ccc2c(NC(=O)Cc3ccc(C(F)(F)F)cc3F)cccc2c1=O` [ID 865], for which the inhibition at 0.3 µM was over 76% and the IC50 stood at 76.7 nM.

As to `Cc1cc(-n2ccc3c(NC(=O)Cc4ccccc4C)cccc3c2=O)no1` [ID 729], the inhibition at 0.1 µM fell in the range of 0 to 25%.

As to `CCOc1cccc(C(=O)Nc2cccc3c(=O)n(-c4cc(C)on4)ccc23)c1` [ID 717], the inhibition at 0.1 µM lay in the range of 0 to 25%.

Regarding `O=C(Cc1ccc(C(F)(F)F)cc1)Nc1cccc2c(=O)n(C3CC3)ccc12` [ID 877], the inhibition at 0.3 µM is over 76% and the IC50 came out at 23.7 nM.

Turning to `CCOC(=O)N1CCC(n2ccc3c(NC(=O)c4ccc(C)cc4C)cccc3c2=O)CC1` [ID 766], the inhibition at 0.1 µM is 0 to 25%.

With `O=C(Cc1ccc(Cl)c(F)c1)Nc1cccc2c(=O)n(C3CC3)ccc12` [ID 882], the inhibition at 0.3 µM was over 76% and the IC50 came out at 6.04 nM.

Turning to `O=C(CC1CCCCCC1)Nc1cccc2c(=O)n(C3CCNC3)ccc12` (stereo not shown) [ID 820], the inhibition at 0.3 µM was over 76% and the IC50 is 25.7 nM.

For the compound `CCOC(=O)N1CCC(n2ccc3c(NC(=O)Cc4ccc(OCC)cc4)cccc3c2=O)CC1` [ID 786], the inhibition at 0.1 µM lay in the range of 0 to 25%.

In the case of `Cc1ccc(CC(=O)Nc2cccc3c(=O)n(-c4cc(C)on4)ccc23)cc1` [ID 733], the inhibition at 0.1 µM lay in the range of 0 to 25%.

With `CC(C(=O)Nc1cccc2c(=O)n(C3CCNCC3)ccc12)c1ccc(Cl)cc1` (stereo not shown) [ID 817], the inhibition at 0.3 µM was 0 to 25% and the IC50 worked out at 902 nM.

Turning to `Cc1cc(-n2ccc3c(NC(=O)C4C[C@@H]5CC[C@H]4C5)cccc3c2=O)no1` (stereo partly shown) [ID 738], the inhibition at 0.1 µM was in the range of 0 to 25%.
